In this data set the test system is osteoblast-like MG63 cells. In words: LDH cytotoxicity assay on osteoblast-like cells. The conditions noted are these: 1% Tween-20, Positive Control, 24 h, mean, SD ± 4.2%. It is filed as cell-based, human. The procedure:
MG63 cells (ATCC, Rockville, MD, USA) were thawed from a frozen stock and cultured in DMEM (11885-084, Thermo Fisher Scientific, Segrate, Italy) supplemented with non-inactivated 10% fetal bovine serum (FBS, F7524, Sigma-Aldrich, Milan, Italy) and 100× Penicillin/Streptomycin solution (P/S, 10,000 units penicillin and 10 mg streptomycin/mL, P4333, Sigma-Aldrich, Milan, Italy), under standard culture conditions (i.e., at 37 °C, in a humidified atmosphere with 5% CO2). Cells were regularly subcultured 2–3 times a week by using TrypLE Select 1× (GIBCO, Thermo Fisher Scientific, Segrate, Italy).
A suspension of MG63 cells was prepared in complete DMEM at a concentration of 5 × 10^4 cells/mL. […]
Cytotoxicity was assessed by measuring the release of lactate dehydrogenase (LDH) from damaged cells by the LDH Cytotoxicity Assay (ab197004, Abcam, Cambridge, UK), strictly following the instructions of the manufacturer. […] After 10 min shaking, the plate was read in fluorescence (excitation: 535 nm; emission 587 nm) by an Infinite 200 PRO mod. M PLEX multifunction plate reader (Tecan Group Ltd., Männedorf, Switzerland). […]
Data in relative fluorescence units (RFU) from the investigation on KSL-W suppression of S. aureus cytotoxicity were processed as follows. […]

For the substance Tween-20, the “cytotoxicity (LDH, % of Lysate Control)” value was 50.3%.

For the origin of these results see paper PMC12386934, “Characteristics and Potential of KSL, KSL-W, and Dadapin-1 Antimicrobial Peptides for Preventing Infections of Orthopedic Prosthetic Devices: Identifying the Most Robust Candidate” (International Journal of Molecular Sciences, 2025).
